Literature values as cited in patent publication US10016375B2, “Materials and methods for controlling infections” (priority 2013, dated 2018).
Blank lines part the entries; values can stand above or below the compound they belong to.

Legend:
[1] = 4% chlorhexidine gluconate applied to the eyes
[2] = three consecutive cataract operations

Compound: CC(=O)O.CC(=O)O.NC(=N\CCCCCC/N=C(N)/N=C(\N)Nc1ccc(Cl)cc1)/N=C(\N)Nc1ccc(Cl)cc1 [Chlorhexidine diacetate]
Acute toxicity when applied to the eye: highly acutely toxic

Compound: [H]/N=C(\N/C(=N/[H])NCCCCCCNC(=N)NC(=N)Nc1ccc(Cl)cc1)Nc1ccc(Cl)cc1 [Chlorhexidine gluconate]
Corneal damage (bullous keratopathy, epithelial defects, corneal opacification) when applied to the eyes [1]: may produce corneal damage

Effects in the retina or optic nerve after intraocular irrigation [2]: No effects were observed
Compound: [H]/N=C(\N/C(=N/[H])NCCCCCCNC(=N)NC(=N)Nc1ccc(Cl)cc1)Nc1ccc(Cl)cc1 [chlorhexidine]
Corneal endothelium damage after intraocular irrigation ([2]; two of the three patients): corneal endothelium damage was so severe that penetrating keratoplasty had to be performed
